# Measurements from patent US4188387A, “Amino-aryl 1,24-triazines useful in the treatment of diverse pain” (priority 1977, dated 1980).
# Entries after “also recorded” stand apart in the source; their conditions may differ. Read-outs that look alike come from different tables or passages of the source.
# Columns and labels:
# [1] = Solubility; assay type: physicochemical; details: solvents named in the value
# [2] = Analgesic activity according to […] et al. (phenyl benzoquinone injection); assay type: in vivo; details: oral, 30 minutes before the injection of phenyl benzoquinone
# Method: The compounds are administered orally 30 minutes before the injection of phenyl benzoquinone.
# [3] = test system: dental pulp; assay: Electric stimulation of dental pulp in rabbits (J. CHEYMOL et al.); assay type: in vivo
# [4] = Ulcerogenic effect (criteria of PFEIFER and LEWALDOWFKI); assay type: in vivo; details: criteria of C. J. PFEIFER and L. G. LEWALDOWFKI
# Text: J. PFEIFER and L. G. LEWALDOWFKI (Arch. Int. Pharmacodyn. 1971, 190, 5-13).
# [5] = in vivo; details: mouse
# Method: The toxicity study was carried out on the conventional mouse, weighing about 20 g.
# The substances were administered orally and intraperitoneally.
# The LD50 was calculated in accordance with the method of L. C. MILLER and M. L. TAINTER, Proc. Soc. exper.
# [6] = ip, intraperitoneal, read-out: LD50 intraperitoneally
Compound,solubility [1],ED50 [2] [mg/kg],analgesic activity in electric stimulation of dental pulp [3],ulcerogenic effect [4],"LD50 [5, 6] [mg/kg]","LD50 ([5]; oral, read-out: LD50 orally) [mg/kg]"
CN(C)c1ccc(-c2n[nH]c(=O)nc2-c2ccc(N(C)C)cc2)cc1,"Soluble in aqueous dilute bases and acids; also recorded: poorly soluble in alcohol, benzene, methylene chloride, chloroform; also recorded: Insoluble in ether",–,–,–,–,–
"CC(=O)Oc1ccccc1C(=O)O [Acetylsalicylic acid, reference compound]",–,100,–,–,–,–
"O=C(OCC(O)CO)c1ccccc1Nc1ccnc2cc(Cl)ccc12 (stereo not drawn) [Glaphenine, reference compound]",–,36,–,–,–,–
"CN(C)c1ccc(-c2nc(=O)n(C)nc2-c2ccc(N(C)C)cc2)cc1 [ST 729, 2-methyl 3-oxo 5,6-di(paradimethylamino-phenyl) as triazine]","insoluble in water, dilute bases, benzene, and ether; also recorded: Soluble in dilute acids, alcohol and methylene chloride",1,confirmed,without ulcerogenic effect,–,–
CN(C)c1ccc(-c2n[nH]c(=O)nc2-c2ccccc2Cl)cc1 [ST 745],"Insoluble in water, benzene, and ether; also recorded: Soluble in dilute bases and acids, ethanol, and methylene chloride",–,–,–,–,–
"CN(C)c1ccc(-c2nn(C)c(=O)nc2-c2ccccc2Cl)cc1 [ST 746, 2-methyl 3-oxo 5(orthochlorophenyl) 6(paradimethylaminophenyl) as. triazine]","Insoluble in water, dilute bases and ether; also recorded: Soluble in methylene chloride, benzene, alcohol, chloroform and dilute acids",100,–,–,300,1000
"CN(C)c1ccc(-c2nn(C)c(=O)nc2-c2ccc(Cl)cc2)cc1 [ST 761, 2-methyl 3-oxo 5(parachlorophenyl) 6(p-dimethylaminophenyl) as triazine]","Soluble in dilute acids, CH2 Cl2, and chloroform; also recorded: Insoluble in water, dilute bases, and ether",4,–,–,400,1500
"CN(C)c1ccc(-c2nc(=O)n(CCN3CCOCC3)nc2-c2ccc(N(C)C)cc2)cc1 [ST 767, 2 Ethyl morpholino 3-oxo 5,6 di(paradimethylaminophenyl) as. triazine]","Soluble in dilute aqueous acids, alcohol, methylene chloride, and chloroform; also recorded: Insoluble in water and dilute bases, benzene and ether",1 to 50,–,–,–,> 1000
"CCN(CC)c1ccc(-c2nnc(O)nc2-c2ccc(N(CC)CC)cc2)cc1 [ST 770, 3-oxo 5,6-di(paradiethylaminophenyl) as triazine]","Soluble in dilute acids and bases, alcohol, benzene, and methylene chloride",–,–,–,–,–
"CCN(CC)c1ccc(-c2nc(=O)n(C)nc2-c2ccc(N(CC)CC)cc2)cc1 [ST 771, 2-methyl 3-oxo 5,6-di(paradiethylaminophenyl) as triazine]","Soluble in dilute aqueous acids, alcohol, methylene chloride, and chloroform; also recorded: Insoluble in water, dilute bases, benzene, ether",–,–,–,–,> 1000
"C=CCn1nc(-c2ccc(N(C)C)cc2)c(-c2ccc(N(C)C)cc2)nc1=O [ST 776, 2-allyl 3-oxo 5,6-di(paradimethylaminophenyl) as triazine]","Soluble in dilute aqueous acids, alcohol, benzene, methylene chloride, and chloroform; also recorded: Insoluble in water, bases, and ether",1 to 50,confirmed,without ulcerogenic effect,–,> 1000
CN(C)CCCn1nc(-c2ccc(N(C)C)cc2)c(-c2ccc(N(C)C)cc2)nc1=O [ST 778],"Soluble in dilute aqueous acids, alcohol, benzene, methylene chloride, and chloroform; also recorded: Insoluble in water, dilute bases and ether",1 to 50,–,–,–,> 1000
"CCN(CC)CCn1nc(-c2ccc(N(C)C)cc2)c(-c2ccc(N(C)C)cc2)nc1=O [ST 790, 2-diethylaminoethyl 3-oxo 5,6(paradimethylaminophenyl) as triazine]","Soluble in dilute aqueous acids, alcohol, benzene, methylene chloride, and chloroform; also recorded: Insoluble in bases, water, and ether",1 to 50,–,–,–,> 1000
"CN(C)c1ccc(-c2nc(=S)n(C)nc2-c2ccc(N(C)C)cc2)cc1 [ST 811, 2-methyl 3-thione 5,6-di(paradimethylaminophenyl)as triazine]","Soluble in aqueous dilute acids, alcohols, and methylene chloride; also recorded: Insoluble in water, aqueous bases, and ether",1 to 50,–,–,–,> 1000
